From patent publication US9029092B2, “Solution phase homogeneous assays” (Beckman Coulter, Inc., priority 2009, dated 2015)

Test system: biotinylated HRP
Assay: Model system for selection of SSIA (AK1/streptavidin BSA microparticles + biotinylated HRP)
Type: biochemical, horseradish
Conditions: SSIA 100 μM final; for light intensity, BTN-HRP0: Btn-HRP 0 ng/mL; for light intensity, BTN-HRP0 / light intensity, BTN-HRP1 / light intensity, BTN-HRP10 / light intensity, BTN-HRP100 / light intensity, BTN-HRP250: total HRP 500 ng/mL; for S1/S0: Btn-HRP 1 ng/mL vs 0; for light intensity, BTN-HRP1: Btn-HRP 1 ng/mL; for S2/S0: Btn-HRP 10 ng/mL vs 0; for light intensity, BTN-HRP10: Btn-HRP 10 ng/mL; for S3/S0: Btn-HRP 100 ng/mL vs 0; for light intensity, BTN-HRP100: Btn-HRP 100 ng/mL; for S4/S0: Btn-HRP 250 ng/mL vs 0; for light intensity, BTN-HRP250: Btn-HRP 250 ng/mL
Protocol: The model system uses a microparticle conjugated to BSA (bovine serum albumin) labeled with a […] and acridan ketenedithioacetal chemiluminescent label (AK1) as the chemiluminescent-labeled sbp, and biotinylated HRP as the activator-labeled specific binding pair. In the model system, varying amounts of Btn-HRP is added to the chemiluminescent-labeled specific binding pair at 0, 1, 10, 100 and 250 ng/mL. Additional unlabeled HRP is added to reach a total HRP of concentration of 500 ng/mL in each reaction mixture. The unlabeled HRP in combination with the activator-labeled sbp was provided to the chemiluminescent-labeled sbp microparticles to emulate sample. A compound for assessment as an SSIA was also added. This reaction mixture of the model system is then triggered by addition of trigger solution in a manner of assays of the present disclosure.
To prepare the chemiluminescent-labeled sbp on microparticles, Bovine Serum Albumin (BSA) was biotinylated with 4× molar excess of biotin-LC-sulfoNHS (Pierce Biotechnology Inc., Rockford, Ill., USA). Unbound reactants were removed via desalting or dialysis. The biotin-BSA was then reacted with a 5× molar excess of an NHS ester of acridan ketenedithioacetal AK1 in 20 mM sodium phosphate pH 7.2: DMSO 75:25, v/v) followed by desalting in the same buffer. The dual labeled (biotin and AK1) BSA was then coupled with tosyl activated M280 microparticles (Invitrogen Corporation, Carlsbad, Calif., USA) in a 0.1M borate buffer pH 9.5 at a concentration of about 20 μg of labeled BSA per mg of microparticles for 16-24 h at 40° C. After coupling the microparticles were stripped for 1 h at 40° C. with 0.2 M TRIS base, 2% SDS, pH˜11. The stripping process was repeated one additional time. Microparticles were then suspended in a 0.1% BSA/TRIS buffered saline (BSA/TBS) buffer and streptavidin (SA) was added at approximately 15 μg SA per mg microparticles. Streptavidin was mixed with the microparticles for 45-50 min at room temperature. The microparticles were then washed three times and suspended in the same BSA/TBS.
HRP, (Roche Diagnostics, Indianapolis, Ind., USA) was biotinylated with 4× molar excess of biotin-LC-sulfoNHS (Pierce Biotechnology Inc., Rockford, Ill., USA). Alternatively, 25× molar excess of biotin-PEO4-NHS may be used. Unbound reactants were removed via desalting or dialysis.
Each SSIA compound for assessment was solubilized in Buffer II at a concentration at least 10× of the working strength concentration.
25 μl of 1 mg/ml of dual-labeled (biotin and AK1) BSA M280 particles were mixed with 45 μl of working concentration SSIA in Buffer II. The assay volume brought to 85 μl by adding 15 μl of Buffer II. 15 μl of sample containing Btn-HRP:HRP at different ratios (The amount of biotinylated-HRP varied from 0, 1, 10, 100 and 250 ng/mL) was added. The reaction mixture was incubated for 30 min at 37° C., then 100 μL of trigger solution was added and the light intensity recorded. Total volume of reaction mixture, including trigger solution was 200 μL with a final concentration of 100 μM of SSIA.
The screening tests were performed using a modified DxI® Immunoassay System (Beckman Coulter, Inc. Brea, Calif.) as described above.

Compound | light intensity, BTN-HRP0 | S1/S0 | light intensity, BTN-HRP1 | S2/S0 | light intensity, BTN-HRP10 | S3/S0 | light intensity, BTN-HRP100 | S4/S0 | light intensity, BTN-HRP250 | effectiveness as SSIA in the model system
COc1cc(/C=C/C(=O)O)ccc1O [Ferulic acid] | 5,252 | 2.3 | 12,079 | 136.2 | 715,313 | 1672.9 | 8,785,865 | 1950.5 | 10,244,269 | 
COc1ccc2[nH]cc(CCNC(C)=O)c2c1 [Melatonin] | 54,528 | 1.3 | 70,741 | 43.7 | 2,381,361 | 173.7 | 9,471,431 | 190.2 | 10,370,061 | insuffient effectiveness
Oc1ccc(C=Cc2cc(O)cc(O)c2)cc1 [Resveratrol] | 64,051 | 1.3 | 81,452 | 16.8 | 1,073,968 | 92.8 | 5,944,792 | 102.4 |  | insuffient effectiveness
Cc1c(O)cc2c(c1C)O[C@](C)(CCC[C@H](C)CCC[C@H](C)CCCC(C)C)CC2 [(+)-gamma-Tocopherol] | 6,051 | 1.8 | 10,924 | 278.7 | 1,686,079 | 1437.5 | 8,698,069 | 1699.4 | 10,282,504 | 
COc1cc(C(=O)O)cc(OC)c1O [Syringic Acid] | 14,485 | 1.6 | 23,707 | 64.8 | 939,372 | 547.2 | 7,927,096 | 658 | 9,530,979 | 
NNC(=O)c1cccnc1 [Nicotinic Hydrazide] | 42,260 | 1.4 | 58,356 | 49.8 | 2,106,471 | 194.2 | 8,205,320 | 187.5 | 7,923,092 | insuffient effectiveness
Oc1ccc(O)c(Cl)c1 [2-chloro-1,4-dihydroxybenzene] | 3,571 | 1.1 | 4,007 | 52.9 | 188,920 | 170.8 | 610,053 | 245.3 | 875,831 | 
Cl.Nc1ccc(O)cc1O [4-aminoresorcinol hydrochloride] | 675 | 1.7 | 1,163 | 110.8 | 74,764 | 489.0 | 330,056 | 384.5 | 259,541 | 
O=C(O)CCCC[C@@H]1CCSS1 (racemic) [Lipoic Acid] | 35,016 | 2 | 71,751 | 70.0 | 2,450,949 | 246.9 | 8,647,037 | 252.7 | 8,847,921 | insuffient effectiveness
O=C(O)c1cccnc1 [Nicotinic Acid] | 34,369 |  | 53,765 |  | 2,228,317 |  | 8,772,523 |  | 9,224,439 | insuffient effectiveness
Oc1ccc(Cl)cc1O [4-chloro catechol, 4-chlorocatechol] | 93 | 2.2 | 205 | 14.8 | 1,373 | 4910.8 | 456,707 | 13558.5 | 1,260,937 | demonstrating utility as SSIA
CCCCCCCCCCCCCCCC(=O)OC[C@H](O)[C@H]1OC(=O)C(O)=C1O [Ascorbic Acid 6-palmitate] | 81 | 4 | 327 | 502.4 | 40,863 | 100662.3 | 8,187,204 | 125193.6 | 10,182,411 | demonstrating utility as SSIA
CC1(C)CC(O)CC(C)(C)N1[O] [TEMPOL] | 22,621 | 1.5 | 33,873 | 86.8 | 1,963,369 | 407.6 | 9,220,799 | 467.6 | 10,578,104 | insuffient effectiveness
CC(=O)N[C@@H](CS)C(=O)O [N-Ac-Cysteine, N-acetyl cysteine] | 43,647 | 1.1 | 47,636 | 40.3 | 1,757,607 | 199 | 8,685,795 | 234.2 | 10,219,869 | insuffient effectiveness
O=c1[nH]c(=O)c2[nH]c(=O)[nH]c2[nH]1 [Uric Acid] | 5,532 | 1.8 | 9,760 | 185.3 | 1,025,209 | 1574.9 | 8,712,328 | 1935.8 | 10,708,733 | 
Nc1ccc(C(=O)O)cc1O [4-Amino-3-hydroxy-benzoic acid] | 972 | 2.9 | 2,808 | 454.2 | 441,455 | 6076.7 | 5,906,521 | 6587.9 | 6,403,425 | demonstrating utility as SSIA
N[C@@H](CS)C(=O)O [Cysteine] | 35,695 | 1.6 | 58,203 | 69.6 | 2,483,411 | 256.3 | 9,147,371 | 285.5 | 10,190,505 | insuffient effectiveness
(+/−)-alpha-Tocopherol | 2,772 | 2.3 | 6,468 | 452.1 | 1,253,187 | 3088.2 | 8,560,469 | 3473.4 | 9,628,184 | 
